This is an account of results in US20050197350A1, “Novel quinoline, tetrahydroquinazoline, and pyrimidine derivatives and methods of treatment related to the use thereof” (TAISHO PHARMACEUTICAL CO., LTD., priority 2003, published 2005).

The subject of this assay is MCH receptors. In words: MCH receptor activity class (method not given).
Where [1] appears, read: class by percent of control at 10^-7 M or IC50.
Setting [2] is: class by percent of control at 10^−7 M or IC50.
Setting [3] is: MCH receptor, class by percent of control at 10^-7 M or IC50.
Where [4] appears, read: activity class per percent of control at 10^-7 M or IC50.

Regarding `CN(C)c1cc(N[C@H]2CC[C@@H](NC(=O)C(CC(=O)c3ccc(Cl)cc3)SCc3ccc(Cl)cc3)CC2)nc2ccccc12` (relative stereo) [compound 741], under setting [1], the class is reported as 3 (Class 3 The value of percent of control at 10^−7 M was more than 60% or the value of IC50 was more than 200 nM.).
Same read-out and setting: the same measure for `COC(C(=O)N[C@H]1CC[C@@H](Nc2cc(N(C)C)c3ccccc3n2)CC1)c1ccccc1` (relative stereo) [compound 777]: 3 (Class 3 The value of percent of control at 10^−7 M was more than 60% or the value of IC50 was more than 200 nM.).
For the molecule `Cc1cnc(N[C@H]2CC[C@@H](NC(=O)c3ccccc3Cl)CC2)nc1N(C)C` [compound 2915], the class under setting [2] is on record as 3 (Class 3 The value of percent of control at 10^−7 M was more than 60% or the value of IC50 was more than 200 nM.).
The same measure, in the same setting: the same measure for `Cc1cccc(C(=O)N[C@H]2CC[C@@H](Nc3ncc(C)c(N(C)C)n3)CC2)c1` [compound 2937, N-(cis-4-{[4-(dimethylamino)-5-methylpyrimidin-2-yl]amino}cyclohexyl)-3-methylbenzamide]: 1 (Class 1: The value of percent of control at 10^−7 M was less than 40% or the value of IC50 was less than 50 nM.).
As for `Cc1ccc(Oc2ncccc2C(=O)N[C@H]2CC[C@@H](Nc3cc(N(C)C)c4ccccc4n3)CC2)cc1` [compound 137, N-(cis-4-{[4-(dimethylamino)quinolin-2-yl]amino}cyclohexyl)-2-(4-methylphenoxy)nicotinamide], the class under setting [3] is given as 1 (Class 1: The value of percent of control at 10^−7 M was less than 40% or the value of IC50 was less than 50 nM.).
For the molecule `CN(C)c1ccnc(N[C@H]2CC[C@@H](NC(=O)CCc3ccc(Cl)c(Cl)c3)CC2)n1` [compound 837], the class under setting [1] is on record as 3 (Class 3 The value of percent of control at 10^−7 M was more than 60% or the value of IC50 was more than 200 nM.).
In the case of `COc1cccc(CN[C@H]2CC[C@@H](Nc3cc(N(C)C)c4ccccc4n3)CC2)c1` [compound 1104], under setting [4], the class is listed as 3 (Class 3 The value of percent of control at 10^−7 M was more than 60% or the value of IC50 was more than 200 nM.).
For the molecule `CC(C)c1cccc(C(C)C)c1NC(=O)NC[C@H]1CC[C@@H](Nc2cc(N(C)C)c3ccccc3n2)CC1` [compound 2396], under “MCH receptor activity class 1-3 (percent of control at 10^-7 M or IC50)”, the class was 1 (Class 1: The value of percent of control at 10^−7 M was less than 40% or the value of IC50 was less than 50 nM.).
Consider `Cc1cc(C(=O)N[C@H]2CC[C@@H](Nc3ncc(C)c(N(C)C)n3)CC2)ccc1F` [compound 2923, N-(cis-4-{[4-(dimethylamino)-5-methylpyrimidin-2-yl]amino}cyclohexyl)-4-fluoro-3-methylbenzamide], for which the class under setting [2] was 1 (Class 1: The value of percent of control at 10^−7 M was less than 40% or the value of IC50 was less than 50 nM.).
As for `Cc1cc(C)cc(C(=O)N[C@H]2CC[C@@H](Nc3ncc(C)c(N(C)C)n3)CC2)c1` [compound 2934], under setting [2], the class is given as 1 (Class 1: The value of percent of control at 10^−7 M was less than 40% or the value of IC50 was less than 50 nM.).
On to `CN(C)c1nc(N[C@H]2CC[C@@H](NC(=O)Nc3c(Br)cc(F)cc3Br)CC2)nc2c1CCCC2` [compound 1799], for which, under setting [1], the class was 3 (Class 3 The value of percent of control at 10^−7 M was more than 60% or the value of IC50 was more than 200 nM.).
On to `COc1ccc(F)c(CNC[C@H]2CC[C@@H](Nc3cc(N(C)C)c4ccccc4n3)CC2)c1` [compound 1164], for which, under setting [1], the class is listed as 3 (Class 3 The value of percent of control at 10^−7 M was more than 60% or the value of IC50 was more than 200 nM.).
In the case of `COC(=O)[C@H](Cc1ccccc1)NC(=O)N[C@H]1CC[C@@H](Nc2nccc(N(C)C)n2)CC1` (relative stereo) [compound 2225], the class under setting [1] is reported as 3 (Class 3 The value of percent of control at 10^−7 M was more than 60% or the value of IC50 was more than 200 nM.).
Consider `Cc1ccc(-c2ccc(C(=O)NC[C@H]3CC[C@@H](Nc4nccc(N(C)C)n4)CC3)o2)c([N+](=O)[O-])c1` [compound 938], for which, under setting [1], the class is 3 (Class 3 The value of percent of control at 10^−7 M was more than 60% or the value of IC50 was more than 200 nM.).
Consider `CN(C)c1cc(N[C@H]2CC[C@@H](NC(=O)CSc3ccccc3)CC2)nc2ccccc12` [compound 63], for which the class under setting [3] is given as 3 (Class 3 The value of percent of control at 10^−7 M was more than 60% or the value of IC50 was more than 200 nM.).
Still for that read-out and setting: next, `CN(C)c1nc(N[C@H]2CC[C@@H](NC(=S)Nc3ccc(NC(=O)OC(C)(C)C)cc3)CC2)nc2c1CCCC2` [compound 1996]: 3 (Class 3 The value of percent of control at 10^−7 M was more than 60% or the value of IC50 was more than 200 nM.).
As for `COc1ccc(NC(=O)N[C@H]2CC[C@@H](Nc3nccc(N(C)C)n3)CC2)cc1OC1CCCC1` [compound 2253], the class under setting [1] is 2 (Class 2: The value of percent of control at 10^−7 M was from 40% to 60% or the value of IC′50 was from 50 nM to 200 nM.).
Same read-out and setting: next, `Cc1onc(-c2c(F)cccc2Cl)c1C(=O)N[C@H]1CC[C@@H](Nc2nccc(N(C)C)n2)CC1` [compound 318]: 2 (Class 2: The value of percent of control at 10^−7 M was from 40% to 60% or the value of IC′50 was from 50 nM to 200 nM.); `COc1cc(CNC[C@H]2CC[C@@H](Nc3nccc(N(C)C)n3)CC2)cc(OC)c1OC` [compound 1257]: 2 (Class 2: The value of percent of control at 10^−7 M was from 40% to 60% or the value of IC′50 was from 50 nM to 200 nM.).
As for `CSc1sc(C(=O)N[C@H]2CC[C@@H](Nc3nc4c(c(N(C)C)n3)CCCC4)CC2)c(Cl)c1S(=O)(=O)C(C)C` [compound 1041], the class under setting [4] is on record as 3 (Class 3 The value of percent of control at 10^−7 M was more than 60% or the value of IC50 was more than 200 nM.).
Take `CCOC(=O)c1cccc(NC(=O)N[C@H]2CC[C@@H](Nc3nccc(N(C)C)n3)CC2)c1` [compound 2217]: under setting [1], the class is 3 (Class 3 The value of percent of control at 10^−7 M was more than 60% or the value of IC50 was more than 200 nM.).
Regarding `COc1ccc(C(=O)NC[C@H]2CC[C@@H](Nc3ncc(C)c(N(C)C)n3)CC2)cc1` [compound 2693], under setting [2], the class is 3 (Class 3 The value of percent of control at 10^−7 M was more than 60% or the value of IC50 was more than 200 nM.).
With `CCOC(=O)[C@H](Cc1ccccc1)NC(=O)N[C@H]1CC[C@@H](Nc2nc3c(c(N(C)C)n2)CCCC3)CC1` (relative stereo) [compound 1730], under setting [1], the class was 3 (Class 3 The value of percent of control at 10^−7 M was more than 60% or the value of IC50 was more than 200 nM.).
On the same count and under the same terms, the same measure for `CN(C)c1ccnc(N[C@H]2CC[C@@H](NC(=O)c3cc(Cl)sc3Cl)CC2)n1` [compound 301]: 2 (Class 2: The value of percent of control at 10^−7 M was from 40% to 60% or the value of IC′50 was from 50 nM to 200 nM.); for `COc1cccc(C(=O)NC[C@H]2CC[C@@H](Nc3nccc(N(C)C)n3)CC2)c1` [compound 365]: 3 (Class 3 The value of percent of control at 10^−7 M was more than 60% or the value of IC50 was more than 200 nM.); for `CN(C)c1ccnc(N[C@H]2CC[C@@H](NC(=O)Cc3cc(C(C)(C)C)c(O)c(C(C)(C)C)c3)CC2)n1` [compound 842]: 1 (Class 1: The value of percent of control at 10^−7 M was less than 40% or the value of IC50 was less than 50 nM.).
With `CN(C)c1cc(N[C@H]2CC[C@@H](NC(=O)CCC(=O)c3cccs3)CC2)nc2ccccc12` [compound 745], under setting [1], the class was 3 (Class 3 The value of percent of control at 10^−7 M was more than 60% or the value of IC50 was more than 200 nM.).
